The target in assay [1] is recombinant N-terminal MLH1 (residues 15-340) (Homo sapiens (Human), UniProt P40692). The assay is described as follows: Fluorescence polarisation assay for MLH1 (protocol for all Examples except Examples 64, 76, 90 and 95). It counts as binding. The settings on record: FP probe displacement; 100 nM N-terminal MLH1, 5 nM probe compound, read after 15 minutes; all Examples except 64, 76, 90 and 95. The method in brief: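 N-terminal MLH1 (100 nM final) preincubated with compounds 30 min at room temperature, then rhodamine-labelled resorcinol probe added (5 nM final); fluorescence polarisation read after 15 min. Signal normalised to no-inhibitor and no-enzyme controls; serial dilutions for potency, single concentration for screening.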

The target in assay [2] is recombinant N-terminal PMS2 (residues 1-365) (Homo sapiens (Human), UniProt P54278). The assay is described as follows: Fluorescence polarisation assay for PMS2. The class given is binding. The conditions noted are these: FP probe displacement; 10 nM N-terminal PMS2, 5 nM probe compound, read after 1 hour. The gist of the method: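 Displacement of a 5 nM (final) fluorescent probe from 10 nM human PMS2 (residues 1–365) is read as polarisation after 1 h at room temperature, following 30 min compound–protein pre-incubation. No-enzyme (set to 35 mP) and no-inhibitor wells define normalisation.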

Twelve molecules from patent publication US12552758B2, “Inhibitors of MLH1 and/or PMS2 for cancer treatment” (NeoPhore Limited, priority 2020, dated 2026) can be followed below.

Chain of recombinant N-terminal PMS2 (residues 1-365) (P54278 1-365): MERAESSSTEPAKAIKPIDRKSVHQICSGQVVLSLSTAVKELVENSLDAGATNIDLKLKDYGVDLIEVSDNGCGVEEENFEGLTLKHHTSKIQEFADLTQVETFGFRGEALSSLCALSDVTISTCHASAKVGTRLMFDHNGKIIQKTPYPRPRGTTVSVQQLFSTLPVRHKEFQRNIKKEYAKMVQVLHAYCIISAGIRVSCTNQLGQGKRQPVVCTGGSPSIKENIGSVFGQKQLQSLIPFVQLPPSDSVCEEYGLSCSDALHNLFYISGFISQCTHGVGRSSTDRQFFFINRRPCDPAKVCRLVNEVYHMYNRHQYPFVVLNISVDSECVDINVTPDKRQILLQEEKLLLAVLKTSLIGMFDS
Chain of recombinant N-terminal MLH1 (residues 15-340) (P40692 15-340): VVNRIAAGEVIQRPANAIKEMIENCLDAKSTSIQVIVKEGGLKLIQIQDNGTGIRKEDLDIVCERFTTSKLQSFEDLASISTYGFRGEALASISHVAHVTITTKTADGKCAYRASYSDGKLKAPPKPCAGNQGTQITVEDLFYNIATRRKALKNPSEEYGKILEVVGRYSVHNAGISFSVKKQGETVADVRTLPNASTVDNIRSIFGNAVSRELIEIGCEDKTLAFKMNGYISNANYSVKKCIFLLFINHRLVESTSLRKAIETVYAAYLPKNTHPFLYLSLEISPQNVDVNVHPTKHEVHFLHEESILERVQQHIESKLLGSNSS

For `Cc1c(O)cc(O)c(C(=O)N2Cc3cccc(C#N)c3C2)c1OCc1ccccc1` [Example 82, 2-(2-(benzyloxy)-4,6-dihydroxy-3-methylbenzoyl)isoindoline-4-carbonitrile], the IC50 in assay [1] is greater than 10 µM; in assay [2] it was less than 1 µM.
`Cc1c(O)cc(O)c(C(=O)N2Cc3ccc(C(=O)N(C)C)cc3C2)c1OCc1ccccc1` [Example 83, 2-(2-(Benzyloxy)-4,6-dihydroxy-3-methylbenzoyl)-N,N-dimethylisoindoline-5-carboxamide]: the figures for the IC50 in assay [1] and in assay [2] were greater than 10 µM and less than 1 µM, respectively.
Taken in the same sequence, the figures for `CNC(=O)c1ccc2c(c1)CN(C(=O)c1c(O)cc(O)c(C)c1OCc1ccccc1)C2` [Example 84, 2-(2-(Benzyloxy)-4,6-dihydroxy-3-methylbenzoyl)-N-methylisoindoline-5-carboxamide] were greater than 10 µM and less than 1 µM.
Taken in the same sequence, the figures for `Cc1c(O)cc(O)c(C(=O)N2Cc3cccc(C(=O)N(C)C)c3C2)c1OCc1ccccc1` [Example 85, 2-(2-(Benzyloxy)-4,6-dihydroxy-3-methylbenzoyl)-N,N-dimethylisoindoline-4-carboxamide] were greater than 10 µM and less than 1 µM.
Taken in the same sequence, the figures for `CNC(=O)c1cccc2c1CN(C(=O)c1c(O)cc(O)c(C)c1OCc1ccccc1)C2` [Example 86, 2-(2-(benzyloxy)-4,6-dihydroxy-3-methylbenzoyl)-N-methylisoindoline-4-carboxamide] were greater than 10 µM and 1 to 10 µM.
Turning to `CC(=O)Nc1cccc2c1CN(C(=O)c1c(O)cc(O)c(C)c1OCc1ccccc1)C2` [Example 87, N-(2-(2-(benzyloxy)-4,6-dihydroxy-3-methylbenzoyl)isoindolin-4-yl)acetamide], the IC50 in assay [1] is greater than 10 µM; in assay [2] it was less than 1 µM.
Taken in the same sequence, the figures for `Cc1c(O)cc(O)c(C(=O)N2Cc3cccc(OC4CCOC4)c3C2)c1OCc1ccccc1` (stereo not drawn) [Example 88] were greater than 10 µM and less than 1 µM.
Take `Cc1c(O)cc(O)c(C(=O)N2Cc3cccc(OCC4CNC4)c3C2)c1OCc1ccccc1` [Example 89, (4-(Azetidin-3-yl methoxy)isoindolin-2-yl) (2-(benzyloxy)-4,6-dihydroxy-3-methylphenyl) methanone]: the IC50 was greater than 10 µM in assay [1] and less than 1 µM in assay [2].
In the case of `Cc1c(O)cc(O)c(C(=O)N2Cc3cccc(N4CC(C#N)C4)c3C2)c1OCc1ccccc1` [Example 91, 1-(2-(2-(Benzyloxy)-4,6-dihydroxy-3-methylbenzoyl)isoindolin-4-yl)azetidine-3-carbonitrile], the IC50 is greater than 10 µM in assay [1] and less than 1 µM in assay [2].
Taken in the same sequence, the figures for `COc1c(C)c(O)cc(O)c1C(=O)N1Cc2ccc(CN3CCN(C)CC3)cc2C1` [Example 92, (4,6-Dihydroxy-2-methoxy-3-methylphenyl)(5-((4-methylpiperazin-1-yl)methyl)isoindolin-2-yl)methanone] were greater than 10 µM and less than 1 µM.
Taken in the same sequence, the figures for `CCOc1c(C)c(O)cc(O)c1C(=O)N1Cc2ccc(CN3CCN(C)CC3)cc2C1` [Example 93, (2-Ethoxy-4,6-dihydroxy-3-methylphenyl)(5-((4-methylpiperazin-1-yl)methyl)isoindolin-2-yl)methanone] were greater than 10 µM and less than 1 µM.
Taken in the same sequence, the figures for `Cc1c(O)cc(O)c(C(=O)N2Cc3ccc(CN4CCN(C)CC4)cc3C2)c1OCC1CCCCC1` [Example 94, (2-(Cyclohexylmethoxy)-4,6-dihydroxy-3-methylphenyl)(5-((4-methylpiperazin-1-yl)methyl)isoindolin-2-yl)methanone] were greater than 10 µM and less than 1 µM.
